# Assay results as given in US11839214B2, “Fungicidal mixture comprising substituted pyridines” (BASF SE, priority 2017, dated 2023).
# Where two headings read alike, the source gives them in different places.
# Key:
# Format in all cases: cell-based
# [1] = system: Pyricularia oryzae; experiment: microbe, parasite or virus in culture; conditions: for Observed efficacy: single active compound
# [2] = system: Septoria tritici; experiment: Activity against leaf blotch on wheat caused by Septoria tritici (microtiterplate test)
# [3] = system: Botrytis cinerea; experiment: Activity against the grey mold Botrytis cinerea in the microtiterplate test; conditions: single active compound
# [4] = system: Sclerotinia sclerotiorum; experiment: Activity against Sclerotinia sclerotiorum in the microtiterplate test; conditions: Sclerotinia sclerotiorum, 168 h, read-out: Observed efficacy
# [5] = Zymoseptoria tritici, 168 h, single active, 1 ppm, read-out: Observed efficacy
# [6] = Botrytis cinerea, 168 h, 1 ppm, read-out: Observed efficacy
# [7] = Pyricularia oryzae, 168 h, read-out: Observed efficacy
# [8] = Zymoseptoria tritici, 168 h, single active, 0.25 ppm, read-out: Observed efficacy
# [9] = Zymoseptoria tritici, 168 h, single active, read-out: Observed efficacy
# [10] = Botrytis cinerea, 168 h, read-out: Observed efficacy
structure (smiles),measurement,setting,value
"Cc1ccc(C(=O)OCc2ccc(Oc3ccccc3)cc2)c(N)n1 [Aminopyrifen, aminopyrifen]",Observed efficacy,[1]; 0.001 ppm,0%
same,Observed efficacy,[1]; 0.004 ppm,6%
same,Observed efficacy,[1]; 0.016 ppm,36%
"CO/C=C(/C(=O)OC)c1ccccc1Oc1cc(Oc2ccccc2C#N)ncn1 [Azoxystrobin, azoxystrobin]",Observed efficacy,"[2]; single active, 0.004 ppm",5%
same,Observed efficacy,"[2]; single active, 0.016 ppm",2%
same,Observed efficacy,"[2]; single active, 0.063 ppm",26%
same,Observed efficacy,[3]; 0.063 ppm,5%
same,Observed efficacy,[1]; 0.004 ppm,4%
same,Observed efficacy,[1]; 0.016 ppm,44%
"O=C(Nc1ccccc1-c1ccc(Cl)cc1)c1cccnc1Cl [Boscalid, boscalid]",inhibition of growth at 1 ppm,[2]; [5],58%
same,inhibition of growth at 1 ppm,[3]; [6],63%
same,inhibition of growth at 0.25 ppm,[1]; [7],2%
same,inhibition of growth at 4 ppm,[1]; [7],10%
COc1cc(C2=NC(C)(C)C(F)(F)c3ccccc32)cnc1C(F)F [Compound 1-4],inhibition of growth at 0.25 ppm,[2]; [8],7%
same,inhibition of growth at 1 ppm,[2]; [5],8%
same,inhibition of growth at 4 ppm,[2]; [9],1%
same,inhibition of growth at 16 ppm,"[2]; Zymoseptoria tritici, 168 h, single active, 16 ppm, read-out: Observed efficacy",17%
same,inhibition of growth at 1 ppm,[3]; [6],12%
same,inhibition of growth at 4 ppm,[3]; [10],21%
same,inhibition of growth at 16 ppm,"[3]; Botrytis cinerea, 168 h, 16 ppm, read-out: Observed efficacy",41%
same,inhibition of growth at 0.063 ppm,[1]; [7],18%
same,inhibition of growth at 0.25 ppm,[1]; [7],23%
same,inhibition of growth at 1 ppm,[1]; [7],29%
same,inhibition of growth at 4 ppm,[1]; [7],42%
"Cc1cc(C2CC2)nc(Nc2ccccc2)n1 [Cyprodinil, cyprodinil]",inhibition of growth at 4 ppm,[2]; [9],10%
same,inhibition of growth at 4 ppm,[3]; [10],53%
same,inhibition of growth at 1 ppm,[1]; [7],50%
same,inhibition of growth at 4 ppm,[1]; [7],61%
"CC1COC(Cn2cncn2)(c2ccc(Oc3ccc(Cl)cc3)cc2Cl)O1 (stereo not shown) [Difenoconazol, difenoconazole]",inhibition of growth at 0.016 ppm,"[2]; Zymoseptoria tritici, 168 h, single active, 0.016 ppm, read-out: Observed efficacy",22%
same,inhibition of growth at 0.25 ppm,"[3]; Botrytis cinerea, 168 h, 0.25 ppm, read-out: Observed efficacy",21%
same,inhibition of growth at 0.063 ppm,[1]; [7],2%
same,inhibition of growth at 0.25 ppm,[1]; [7],11%
"CNC(=O)/C(=N/OC)c1ccccc1COc1cc(C)ccc1C [Dimoxystrobin, dimoxystrobin]",Observed efficacy,"[2]; single active, 0.016 ppm",2%
same,Observed efficacy,"[2]; single active, 0.063 ppm",27%
same,Observed efficacy,[3]; 0.063 ppm,0%
same,Observed efficacy,[3]; 0.25 ppm,12%
"COc1ccnc(C(=O)N[C@@H](C)C(=O)O[C@@H](C)C(c2ccc(F)cc2)c2ccc(F)cc2)c1OC(C)=O [Florylpicoxamid, florylpicoxamid]",Observed efficacy,"[2]; single active, 0.063 ppm",54%
same,Observed efficacy,"[2]; single active, 0.25 ppm",79%
same,Observed efficacy,[3]; 0.25 ppm,2%
same,Observed efficacy,[3]; 1 ppm,12%
same,Observed efficacy,[1]; 0.016 ppm,49%
"O=[N+]([O-])c1cc(C(F)(F)F)c(Cl)c([N+](=O)[O-])c1Nc1ncc(C(F)(F)F)cc1Cl [Fluazinam, fluazinam]",inhibition of growth at 0.25 ppm,"[4]; single active compound, 0.25 ppm",58%
same,inhibition of growth at 0.063 ppm,[1]; [7],6%
"N#Cc1c[nH]cc1-c1cccc2c1OC(F)(F)O2 [Fludioxonil, fludioxonil]",inhibition of growth at 0.016 ppm,[4],13%
same,inhibition of growth at 0.25 ppm,"[2]; Zymoseptoria tritici, 168 h, read-out: Observed efficacy",10%
same,inhibition of growth at 0.004 ppm,[1]; [7],16%
same,inhibition of growth at 0.016 ppm,[1]; [7],35%
same,inhibition of growth at 0.063 ppm,[1]; [7],40%
"CC1CC(C)(C)c2c(F)ccc(NC(=O)c3cn(C)nc3C(F)F)c21 (stereo not shown) [Fluindapyr, fluindapyr]",Observed efficacy,"[2]; single active, 0.25 ppm",22%
same,Observed efficacy,"[2]; single active, 1 ppm",67%
same,Observed efficacy,[3]; 0.25 ppm,30%
same,Observed efficacy,[1]; 1 ppm,41%
"O=C(NCCc1ncc(C(F)(F)F)cc1Cl)c1ccccc1C(F)(F)F [Fluopyram, fluopyram]",inhibition of growth at 0.25 ppm,[2]; [8],23%
same,inhibition of growth at 0.25 ppm,[1]; [7],7%
"Cn1cc(C(=O)Nc2ccccc2-c2cc(F)c(F)c(F)c2)c(C(F)F)n1 [Fluxapyroxad, fluxapyroxad]",Observed efficacy,"[2]; single active, 0.063 ppm",24%
same,Observed efficacy,[3]; 0.063 ppm,28%
same,Observed efficacy,[1]; 0.063 ppm,8%
"C=CCOC(Cn1ccnc1)c1ccc(Cl)cc1Cl (stereo not shown) [Imazalil, imazalil]",inhibition of growth at 1 ppm,[3]; [6],54%
same,inhibition of growth at 1 ppm,[1]; [7],20%
"Cc1cc(OC(C)C)ccc1C(=O)C(C)(C)NC(=O)c1sccc1C [Isofetamid, isofetamid]",Observed efficacy,"[2]; single active, 0.25 ppm",44%
same,Observed efficacy,[3]; 1 ppm,68%
same,Observed efficacy,[1]; 1 ppm,1%
same,Observed efficacy,[1]; 4 ppm,10%
"CC(C)c1ccc(Cl)cc1CN(C(=O)c1c(C(F)F)nn(C)c1F)C1CC1 [Isoflucypram, isoflucypram]",Observed efficacy,"[2]; single active, 0.063 ppm",72%
same,Observed efficacy,[3]; 0.25 ppm,59%
same,Observed efficacy,[1]; 1 ppm,14%
"CNC(=O)C(OC)c1ccccc1COc1cc(C)ccc1C (stereo not shown) [Mandestrobin, mandestrobin]",Observed efficacy,"[2]; single active, 1 ppm",11%
same,Observed efficacy,[1]; 1 ppm,9%
"CC(O)(Cn1cncn1)c1ccc(Oc2ccc(Cl)cc2)cc1C(F)(F)F (stereo not shown) [Mefentrifluconazol, mefentrifluconazole]",Observed efficacy,[3]; 0.016 ppm,10%
same,Observed efficacy,[1]; 0.016 ppm,7%
"CC#Cc1cc(C)nc(Nc2ccccc2)n1 [Mepanipyrim, mepanipyrim]",inhibition of growth at 1 ppm,[3]; [6],63%
same,inhibition of growth at 4 ppm,[3]; [10],72%
same,inhibition of growth at 0.25 ppm,[1]; [7],3%
same,inhibition of growth at 1 ppm,[1]; [7],45%
same,inhibition of growth at 4 ppm,[1]; [7],64%
"COCC(=O)N(c1c(C)cccc1C)C(C)C(=O)OC (stereo not shown) [Metalaxyl, metalaxyl]",inhibition of growth at 4 ppm,[3]; [10],19%
same,inhibition of growth at 1 ppm,[1]; [7],4%
same,inhibition of growth at 4 ppm,[1]; [7],11%
CC1(C)CCC(Cc2ccc(Cl)cc2)C1(O)Cn1cncn1 (stereo not shown) [Metconazol],Observed efficacy,"[2]; single active, 0.063 ppm",30%
